In US8431589B2, “2,4-diaminopyrimidine derivatives” (Novartis AG, priority 2002, dated 2013):
Values belong to the compound of their own block, whether it stands above or below them.

Columns and labels:
[1] = target: T1, human ZAP-70 protein tyrosine kinase (Homo sapiens, UniProt P43403); assay: ZAP-70 kinase assay (homogenous, time-resolved FRET, LAT-11 substrate); format: biochemical; conditions: 4 μM ATP
T1 construct: purchased Upstate Biotechnology, Lake Placid, N.Y
T1 sequence (P43403 1-619): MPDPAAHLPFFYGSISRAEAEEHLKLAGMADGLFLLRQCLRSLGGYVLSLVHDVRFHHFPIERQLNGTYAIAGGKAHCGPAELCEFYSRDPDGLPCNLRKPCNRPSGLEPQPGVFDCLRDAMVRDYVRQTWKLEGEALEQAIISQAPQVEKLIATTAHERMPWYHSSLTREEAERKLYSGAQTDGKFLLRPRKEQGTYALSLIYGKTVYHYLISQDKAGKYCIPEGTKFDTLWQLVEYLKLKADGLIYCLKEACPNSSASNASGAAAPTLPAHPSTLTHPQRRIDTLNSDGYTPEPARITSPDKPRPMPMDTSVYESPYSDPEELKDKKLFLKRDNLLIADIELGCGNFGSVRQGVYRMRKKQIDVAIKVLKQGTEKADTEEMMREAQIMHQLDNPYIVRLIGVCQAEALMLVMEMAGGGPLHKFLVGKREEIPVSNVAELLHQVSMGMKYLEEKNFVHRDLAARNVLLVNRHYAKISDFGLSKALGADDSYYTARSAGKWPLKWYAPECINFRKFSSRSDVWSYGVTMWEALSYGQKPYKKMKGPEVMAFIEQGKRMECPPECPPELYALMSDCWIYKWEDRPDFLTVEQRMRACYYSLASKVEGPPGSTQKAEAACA
Description: (§1) More particularly the compounds of the invention are active at the human ZAP-70, FAK and/or Syk protein tyrosine kinases.
(§2) ZAP-70, Lck and Syk are commercially available from Upstate Biotechnology, Lake Placid, N.Y.
Preparation of LAT-11 (SEQ ID NO:1): The peptide LAT-11 used as a substrate in the ZAP-70 kinase assay may be prepared as disclosed in Example 1A of WO 02/12275, the contents of which, particularly with reference to Example 1A, is incorporated herein by reference.
ZAP-70 Kinase assay: The activities of the agents of invention are determined in a homogenous ZAP-70 kinase assay based on time-resolved fluorescence resonance energy transfer. Briefly, 80 nM ZAP-70 are incubated with 80 nM Lck and 4 μM ATP in ZAP-70 kinase buffer (20 mM Tris, pH 7.5, 10 μM Na3VO4, 1 mM DTT, 1 mM MnCl2, 0.01% bovine serum albumin, 0.05% Tween 20) for 1 hour at room temperature in a siliconized polypropylene tube. Then, the selective Lck inhibitor PP2 (4-amino-5-(4-chloro-phenyl)-7-(t-butyl)pyrazolo[3,4-d]pyrimidine; Alexis Biochemicals) is added (final concentration 1.2 μM) and incubated for further 10 min. […] After 1 hour incubation at room temperature fluorescence is measured, e.g., on the Victor2 Multilabel Counter (Wallac) at 665 nm. […] The inhibition obtained in the presence of test compounds was calculated as percent inhibition of the high control. […]

[2] = target: T2, human Syk protein tyrosine kinase (Homo sapiens, UniProt P43405); assay: Syk kinase assay (heterogenous DELFIA, poly(Glu, Tyr) substrate); format: biochemical; conditions: ATP 1 μM
T2 construct: purchased Upstate Biotechnology, Lake Placid, N.Y
Protocol: as §1, §2
Syk Kinase assay: The activities of the agents of invention are determined in a heterogenous Syk kinase assay based on the dissociation-enhanced lanthanide fluoroimmunoassay (DELFIA) technology. This method utilizes europium chelate-labelled anti-phosphotyrosine antibodies to detect phosphate transfer by Syk to a polymeric glutamic acid-tyrosine (Glu, Tyr) substrate coated onto microtiter plates as described (Braunwalder A F, Yarwood D R, Sills M A, Lipson K E. Measurement of the protein tyrosine kinase activity of c-src using time-resolved fluorometry of europium chelates. Anal. Biochem. 1996; 238(2):159-64). The amount of phosphorylation is then quantified with time-resolved, dissociation-enhanced fluorescence. Briefly, hundred μl of poly (Glu, Tyr) (4:1; 2 μg/ml in phosphate-buffered saline, PBS) are coated to ELISA plates overnight at room temperature. The poly (Glu, Tyr) solution is removed and 250 μl of 1% bovine serum albumin in PBS are added for one hour at room temperature. […] Fluorescence is determined at 615 nm (Victor2; Wallac). […] The inhibition obtained in the presence of test compounds was calculated as percent inhibition of the high control. […]

[3] = target: T3, recombinant hexahistidine-tagged human FAK kinase domain (Homo sapiens, UniProt Q05397); assay: FAK assay (FRET, Biot-Y397 substrate); format: biochemical
T3 construct: the kinase domain of FAK (Met384-Gly706) from position 29 to 351; made in house; host or cells: baculovirus; Sf9 and ExpresSF+ insect cells
Protocol: All steps are performed in a 96-well black microtiter plate. Purified recombinant hexahistidine-tagged human FAK kinase domain is diluted with dilution buffer (50 mM HEPES, pH 7.5, 0.01% BSA, 0.05% Tween-20 in water) to a concentration of 94 ng/mL (2.5 nM). The reaction mixture is prepared by mixing 10 μL 5× kinase buffer (250 mM HEPES, pH 7.5, 50 μM Na3VO4, 5 mM DTT, 10 mM MgCl2, 50 mM MnCl2, 0.05% BSA, 0.25% Tween-20 in water), 20 μL water, 5 μL of 4 μM biotinylated peptide substrate (Biot-Y397) in aqueous solution, 5 μL of test compound in DMSO, and 5 μL of recombinant enzyme solution and incubated for 30 min at room temperature. The enzyme reaction is started by addition of 5 μL of 5 μM ATP in water and the mixture is incubated for 3 hours at 37° C. The reaction is terminated by addition of 200 μL of detection mixture (1 nM Eu-PT66, 2.5 μg/mL SA-(SL)APC, 6.25 mM EDTA in dilution buffer), and the FRET signal from europium to allophycocyanin is measured by ARVOsx+L (Perkin Elmer) after 30 min of incubation at room temperature. The ratio of fluorescence intensity of 665 nm to 615 nm is used as a FRET signal for data analysis in order to cancel the colour quenching effect by a test compound. The results are determined as percent inhibition of enzyme activity. […] IC50 values are determined by non-linear curve fit analysis using the OriginPro 6.1 program (OriginLab).

FAK = target: T4, FAK (Mus musculus, UniProt P34152); assay: Phosphorylation levels of FAK at Tyr397 (sandwich ELISA) in 4T1 cells; format: cell-based; conditions: 1 h incubation, read-out: IC50, 50% reduction of phosphorylation level of FAK (Tyr397)
T4 construct: endogenous in cells; host or cells: mouse mammary carcinoma 4T1 cells
Protocol: Phosphorylation levels of FAK at Tyr397 are quantified by the sandwich ELISA. Mouse mammary carcinoma 4T1 cells (1×10^5) are plated in wells of 96-well culture plates and incubated with or without various concentrations of a compound of formula I for 1 h in Dulbecco's modified eagle medium containing 10% FBS. The medium is removed and cells are lysed in 200 μL 50 mM Tris-HCl, pH 7.4, containing 1% NP-40, 0.25% sodium deoxycholate, 150 mM NaCl, 1 mM EDTA, 1 mM PMSF, 1 mM Na3VO4, 1 mM NaF, 1 μg/mL aprotinin, 1 μg/mL leupeptin and 1 μg/mL pepstatin. After centrifugation, the supernatants are subjected to a sandwich ELISA to quantify the phosphorylated FAK and total FAK. […] After washing with TBSN (20 mM Tris-HCl, pH 8.3, containing 300 mM NaCl, 0.1% SDS and 0.05% NP-40), total FAK is detected with 100 μL of 1 μg/ml anti-FAK polyclonal antibody (#65-6140, Upstate Biology Inc.), and phosphorylated FAK is detected with 100 μL of […] anti-phosphorylated FAK (Y397) antibody (Affinity BioReagents, #OPA1-03071) in BlockAce diluted at 1:10 with H2O. […] Absorbance at 405 nm is measured after 20 min incubation at room temperature. […]

[4] = system: Mouse mammary carcinoma 4T1 cells; assay: Anchorage-independent tumor cell growth assay; format: cell-based; conditions: Ultra low Attachment plates, 48 h, read-out: IC50, 50% inhibition of growth
Protocol: Mouse mammary carcinoma 4T1 cells (5×10^3) are plated in 96-well Ultra low Attachment plates (#3474, Corning Inc.) in […] of Dulbecco's modified eagle medium containing 10% FBS. Cells are cultured for 2 h and inhibitors are added at various concentrations in a final concentration of 0.1% DMSO. After 48 h, cell growth is assayed with the cell counting kit-8 (Wako Pure Chemical), which uses a water soluble tetrazolium salt WST8. Twenty μL of the reagent is added into each well and cells are further cultured for 2 h. The optical density is measured at 450 nm. The concentration of compound causing 50% inhibition of growth may thus be determined.

T4 sequence (P34152 whole entry): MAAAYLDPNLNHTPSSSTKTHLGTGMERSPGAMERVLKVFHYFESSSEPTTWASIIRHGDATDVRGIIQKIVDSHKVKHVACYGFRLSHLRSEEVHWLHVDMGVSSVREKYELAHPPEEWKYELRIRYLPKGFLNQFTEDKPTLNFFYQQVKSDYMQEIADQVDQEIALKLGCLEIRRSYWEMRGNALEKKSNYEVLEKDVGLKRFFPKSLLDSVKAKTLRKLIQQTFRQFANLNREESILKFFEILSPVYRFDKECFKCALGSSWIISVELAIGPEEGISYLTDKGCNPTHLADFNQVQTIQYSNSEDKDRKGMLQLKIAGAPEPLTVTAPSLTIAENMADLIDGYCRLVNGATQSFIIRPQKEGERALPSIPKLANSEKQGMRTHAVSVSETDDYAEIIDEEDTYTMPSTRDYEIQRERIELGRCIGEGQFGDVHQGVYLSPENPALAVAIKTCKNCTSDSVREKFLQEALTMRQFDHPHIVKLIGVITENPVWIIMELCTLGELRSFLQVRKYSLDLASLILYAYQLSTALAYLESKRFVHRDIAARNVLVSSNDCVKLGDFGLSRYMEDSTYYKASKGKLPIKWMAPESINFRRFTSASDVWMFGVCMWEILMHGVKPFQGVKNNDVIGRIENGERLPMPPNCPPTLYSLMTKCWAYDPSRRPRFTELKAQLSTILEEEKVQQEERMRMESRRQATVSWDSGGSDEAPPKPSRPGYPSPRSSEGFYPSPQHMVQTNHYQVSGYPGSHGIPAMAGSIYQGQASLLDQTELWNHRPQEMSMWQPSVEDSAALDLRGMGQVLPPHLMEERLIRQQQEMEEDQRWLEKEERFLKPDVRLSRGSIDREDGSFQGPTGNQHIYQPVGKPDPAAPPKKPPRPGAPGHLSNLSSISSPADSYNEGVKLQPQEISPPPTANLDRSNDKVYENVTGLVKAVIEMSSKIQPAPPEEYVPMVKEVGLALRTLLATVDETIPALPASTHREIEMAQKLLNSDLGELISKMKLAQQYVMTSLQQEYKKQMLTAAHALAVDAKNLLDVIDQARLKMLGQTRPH
T3 sequence (Q05397 384-706): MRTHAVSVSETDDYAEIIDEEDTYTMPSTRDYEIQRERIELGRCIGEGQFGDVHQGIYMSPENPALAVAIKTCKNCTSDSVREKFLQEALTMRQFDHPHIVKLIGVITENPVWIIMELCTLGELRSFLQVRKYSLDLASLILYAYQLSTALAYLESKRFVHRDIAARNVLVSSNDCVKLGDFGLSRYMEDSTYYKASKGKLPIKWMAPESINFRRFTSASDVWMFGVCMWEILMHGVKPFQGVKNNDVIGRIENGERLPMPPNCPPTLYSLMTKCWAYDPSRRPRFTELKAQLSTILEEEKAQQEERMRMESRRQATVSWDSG

SMILES: COc1cc(Nc2nccc(Nc3cccc(C)c3S(N)(=O)=O)n2)cc(OC)c1OC [Example 3, 2-methyl-6-[2-(3,4,5-Trimethoxy-phenylamino)-pyrimidin-4-ylamino]-benzenesulfonamide]
melting point: 72 to 75 °C

SMILES: COc1cc(Nc2nccc(Nc3cccc(OC)c3S(N)(=O)=O)n2)cc(OC)c1OC [Example 4, 2-Methoxy-6-[2-(3,4,5-trimethoxy-phenylamino)-pyrimidin-4-ylamino]-benzenesulfonamide]
IC50 [1]: 12 nM

SMILES: Cc1cccc(Nc2ccnc(Nc3cccc(OCCn4ccnc4)c3)n2)c1S(N)(=O)=O [Example 128]
IC50 [2]: 150 nM

SMILES: CNS(=O)(=O)c1ccccc1Nc1nc(Nc2cccc(C)c2)ncc1Br [Example 188]
IC50 [3]: 15 nM

SMILES: CNS(=O)(=O)c1cc(F)ccc1Nc1nc(Nc2cc(OC)c(OC)c(OC)c2)ncc1Br [Example 190]
IC50 (FAK): 440 nM

SMILES: CNS(=O)(=O)c1ccccc1Nc1nc(Nc2ccc3cn[nH]c3c2)ncc1Br [Example 198]
IC50 (FAK): 43 nM

Second part, the compound after the results:

IC50 [3]: 1 nM
SMILES: CNS(=O)(=O)c1ccccc1Nc1nc(Nc2cc(OC)c(OC)c(OC)c2)ncc1C(F)(F)F [Example 208]

IC50 [4]: 16 nM
SMILES: CNS(=O)(=O)c1ccccc1Nc1nc(Nc2cc(OC)c(OC)c(OC)c2)ncc1Cl [Example 213]
